Converted amounts (≈) assume the structure as drawn. Like-named read-outs stand apart in the source and are kept apart here.
How the values were obtained:
Assay type in all cases: cell-based, S. cerevisiae
[1] = test system: YPH499 (transformed by YEp352); assay: Sensitivity to antifungal compounds (MIC), wild-type YPH499 (YEp352); settings: for MIC: Saccharomyces cerevisiae, read-out: Minimum Inhibitory Concentration
Procedure: (§1) Strains A and B, and wild-type strain YPH499 (transformed with YEp352) were tested for sensitivity to a variety of known antifungal compounds. Cells were grown in YEPD or SC-URA (2% glucose) liquid culture and dispensed into the wells of a 96-well microtiter dish containing decreasing amounts of antifungal compounds, as in Example 2.
(§2) ^a Cells were grown in SCURA (2% glucose)
^b YPH499 is transformed by YEp352.

Strain B = assay: Sensitivity to antifungal compounds (MIC), Strain B; settings: for MIC: Saccharomyces cerevisiae, read-out: Minimum Inhibitory Concentration
Procedure: as §1, §2

Strain A = assay: Sensitivity to antifungal compounds (MIC), Strain A; settings: for MIC: Saccharomyces cerevisiae, read-out: Minimum Inhibitory Concentration
Procedure: as §1, §2

strains A and B = assay: Whole-cell comparison of strains A and B (and wild type) with antifungal compounds that do not target IPC synthase; settings: strains A and B compared
Procedure: as §1

Row | SMILES | MIC ([1]; SC-URA (2% glucose)) | MIC (Strain B; SC-URA (2% glucose)) | MIC (Strain A; SC-URA (2% glucose)) | effect on strains A and B (in words) (strains A and B) | further results
1 | C[C@@H]1[C@H](O)[C@@H](C)/C=C/C=C/C=C/C=C/C=C/C=C/C=C/[C@H](O[C@@H]2O[C@H](C)[C@@H](O)[C@H](N)[C@@H]2O)C[C@@H]2O[C@](O)(C[C@@H](O)C[C@@H](O)[C@H](O)CC[C@@H](O)C[C@@H](O)CC(=O)O[C@H]1C)C[C@H](O)[C@H]2C(=O)O [Amphotericin B] | 2500 µg/mL (≈ 2710 µM) | 2500 µg/mL (≈ 2710 µM) | 2500 µg/mL (≈ 2710 µM) | equally affected | 
2 | C[C@@H]1C[C@@H]([C@H](O)CC2CC(=O)NC(=O)C2)C(=O)[C@@H](C)C1 [Cycloheximide] |  |  |  | equally affected | MIC [1]: 300 µg/mL (≈ 1070 µM); MIC (Strain B): 600 µg/mL (≈ 2130 µM); MIC (Strain A): 300 µg/mL (≈ 1070 µM)
3 | OC(Cn1cncn1)(Cn1cncn1)c1ccc(F)cc1F [Fluconazole] | > 80000 µg/mL | > 80000 µg/mL | > 80000 µg/mL | equally affected | 
4 | CCC(C)n1ncn(-c2ccc(N3CCN(c4ccc(OCC5COC(Cn6cncn6)(c6ccc(Cl)cc6Cl)O5)cc4)CC3)cc2)c1=O (centres unmarked) [Itraconazole] | 1200 µg/mL (≈ 1700 µM) | 1200 µg/mL (≈ 1700 µM) | 1200 µg/mL (≈ 1700 µM) |  | 
5 | C[C@@H]1[C@H](O)[C@@H](C)/C=C/C=C/CC/C=C/C=C/C=C/C=C/C(O[C@H]2O[C@H](C)[C@@H](O)[C@H](N)[C@@H]2O)CC2O[C@](O)(CC(O)C(O)CCC(O)CC(O)CC(O)CC(=O)O[C@H]1C)CC(O)C2C(=O)O (some centres unmarked) [Nystatin] |  |  |  | equally affected | Minimum Inhibitory Concentration ([1]; SC-URA (2% glucose)): 20 mg/mL; Minimum Inhibitory Concentration (Strain B; SC-URA (2% glucose)): 20 mg/mL; Minimum Inhibitory Concentration (Strain A; SC-URA (2% glucose)): 20 mg/mL
6 | CC(=O)N1CCN(c2ccc(OCC3COC(Cn4ccnc4)(c4ccc(Cl)cc4Cl)O3)cc2)CC1 (centres unmarked) [ketoconazole] |  |  |  | equally affected | 

— patent US5976866A, “Screen for inhibitors of fungal IPC synthase” (Eli Lilly and Company, priority 1997, dated 1999)
